From ChEMBL document CHEMBL3352742, “Synthesis, molecular docking and biological evaluation of coumarin derivatives containing piperazine skeleton as potential antibacterial agents” (Bioorg Med Chem, 2014)
≈ marks a conversion by molar mass, not a printed value.

Tests used:
Staphylococcus aureus = experiment: Antibacterial against Staphylococcus aureus ATCC 25923 after 24 hrs by two-fold serial dilution method; format: functional; conditions: ATCC 25923, 24 h
Pseudomonas aeruginosa = experiment: Antibacterial against Pseudomonas aeruginosa ATCC 27853 after 24 hrs by two-fold serial dilution method; format: functional; conditions: ATCC 27853, 24 h
Escherichia coli = experiment: Antibacterial against Escherichia coli ATCC 25922 after 24 hrs by two-fold serial dilution method; format: functional; conditions: ATCC 25922, 24 h
[1] = Inhibition of Staphylococcus aureus FabI assessed as oxidation of NADH to NAD+ by spectrophotometrically
Bacillus subtilis = experiment: Antibacterial against Bacillus subtilis ATCC 530 after 24 hrs by two-fold serial dilution method; format: functional; conditions: ATCC 530, 24 h
[2] = Cytotoxicity against human macrophages assessed as cell viability after 24 hrs by MTT assay; format: functional, cell-based; conditions: Macrophage
[3] = Toxicity in human erythrocyte assessed as hemolysis by measuring hemoglobin release after 3 hrs; format: cell-based

Row | SMILES | MIC (Staphylococcus aureus) [µg/mL] | MIC (Pseudomonas aeruginosa) [µg/mL] | MIC (Escherichia coli) [µg/mL] | IC50 [1] [µM] | MIC (Bacillus subtilis) [µg/mL] | IC50 [2] [µM] | LC30 [3] [µg/mL]
1 | O=c1cc(OCC(O)CN2CCN(c3cccc(Cl)c3)CC2)c2ccccc2o1 (stereo not drawn) | > 50 | > 50 | 40.6 (≈ 97.8 µM) | 31.4 | 26 (≈ 62.6 µM) |  | 
2 | O=c1cc(OCC(O)CN2CCN(c3ccccc3F)CC2)c2ccccc2o1 (stereo not drawn) | > 50 | > 50 | > 50 | 71.1 | > 50 |  | 
3 | O=c1cc(OCC(O)CN2CCN(c3ccc(F)cc3)CC2)c2ccccc2o1 (stereo not drawn) | > 50 | > 50 | 40.4 (≈ 101 µM) | 62.9 | > 50 |  | 
4 | O=c1cc(OCC(O)CN2CCN(c3cccc(C(F)(F)F)c3)CC2)c2ccccc2o1 (stereo not drawn) | 0.957 (≈ 2.13 µM) | > 50 | > 50 | 0.97 | 1.08 (≈ 2.4 µM) | 172 | > 10
5 | O=C(COc1cc(=O)oc2ccccc12)N1CCN(c2ccc(Cl)cc2)CC1 | > 50 | > 50 | > 50 | 35.5 | 15.8 (≈ 39.5 µM) |  | 
6 | Cc1ccc(N2CCN(C(=O)COc3cc(=O)oc4ccccc34)CC2)c(C)c1 | 46.4 (≈ 118 µM) | > 50 | > 50 | 42.5 | 34.4 (≈ 87.7 µM) |  | 
7 | O=C(COc1cc(=O)oc2ccccc12)N1CCN(c2ccc([N+](=O)[O-])cc2)CC1 | > 50 | > 50 | > 50 | 11.4 | 1.94 (≈ 4.73 µM) |  | 
8 | COc1ccccc1N1CCN(C(=O)COc2cc(=O)oc3ccccc23)CC1 | 8.19 (≈ 20.8 µM) | > 50 | > 50 | 7.15 | 11 (≈ 27.8 µM) | 164 | > 10
9 | COc1cccc(N2CCN(C(=O)COc3cc(=O)oc4ccccc34)CC2)c1 | 0.837 (≈ 2.12 µM) | > 50 | > 50 | 4.62 | 6.96 (≈ 17.6 µM) | 141 | > 10
10 | COc1ccc(N2CCN(C(=O)COc3cc(=O)oc4ccccc34)CC2)cc1 | 0.327 (≈ 0.829 µM) | > 50 | > 50 | 0.83 | 0.861 (≈ 2.18 µM) | 192 | > 10
11 | O=C(COc1cc(=O)oc2ccccc12)N1CCN(c2cccc(Cl)c2Cl)CC1 | 23.2 (≈ 53.6 µM) | > 50 | > 50 | 8.41 | 4.51 (≈ 10.4 µM) | 223 | > 10
12 | O=C(COc1cc(=O)oc2ccccc12)N1CCN(c2ccccc2Cl)CC1 | 28.5 (≈ 71.4 µM) | > 50 | > 50 | 21.9 | 7.18 (≈ 18 µM) |  | 
13 | O=C(COc1cc(=O)oc2ccccc12)N1CCN(c2cccc(Cl)c2)CC1 | > 50 | 46 (≈ 115 µM) | > 50 | 26.6 | 2.94 (≈ 7.37 µM) |  | 
14 | O=C(COc1cc(=O)oc2ccccc12)N1CCN(c2cccc(C(F)(F)F)c2)CC1 | 1.08 (≈ 2.5 µM) | > 50 | > 50 | 1.82 | 0.916 (≈ 2.12 µM) | 188 | > 10
15 | CC1(C)S[C@@H]2[C@H](NC(=O)Cc3ccccc3)C(=O)N2[C@H]1C(=O)O [PENICILLIN G] | 1.69 (≈ 5.04 µM) | 22 (≈ 65.7 µM) | 22.4 (≈ 66.9 µM) |  | 0.752 (≈ 2.25 µM) | 186 | > 10
